Reference: article PMC7488288, “Understanding and Improving the Membrane Permeability of VH032-Based PROTACs” (ACS Medicinal Chemistry Letters, 2020)
Like-named read-outs stand apart in the source and are kept apart here.

Key:
MV4;11 [1] = test: Cell proliferation assay, MV4;11; format: cell-based; conditions: Homo sapiens, 48 h treatment, read-out: pEC50 (MV4;11) (converted)
Text: (§1) IX. Cell proliferation assay
(§2) Cell proliferation data were collected as described in Chan et al. 2018 pg. 511 titled “Cell

HL60 [2] = test: Cell proliferation assay, HL60; format: cell-based; conditions: for pEC50 (HL60): 48 h treatment; for EC50: Homo sapiens, HL-60, 48 h treatment, read-out: pEC50 (HL60) (converted)
Text: as §1, §2

[3] = for LPE: LPE = LogD(dec/w) – 1.06(ALogP) + 5.47
in vitro = conditions: PAMPA
VHL E3 ubiquitin ligase = system: VHL E3 ubiquitin ligase; parameters: method as in PMID 29018234; conditions: cited from earlier work
VHL = biological target: T1, VHL (Homo sapiens, UniProt P40337); test: Fluorescence polarization (FP) competitive binding assay; conditions: 15 nM VCB protein, 10 nM FAM-labeled HIF-1α peptide JC9, read-out: Kd (FP-derived)
T1 construct: each well solution containing 15 nM VCB

MV4;11 [4] = conditions: cited from earlier work; for pEC50 (MV4;11): cell proliferation, 48 h treatment, ref Chan et al. 2018 (ref1)
HL60 [5] = system: HL60; parameters: method as in Chan et al. 2018 (ref1); conditions: cell proliferation, 48 h treatment; ref Chan et al. 2018 (ref1); cited from earlier work
VHL protein = system: VHL protein; parameters: method as in PMID 28288108, PMID 30721025; conditions: cited from earlier work

In the case of `CC(=O)N[C@H](C(=O)N1C[C@H](O)C[C@H]1C(=O)NCc1ccc(-c2scnc2C)cc1)C(C)(C)SCCCCNC(=O)C[C@@H]1N=C(c2ccc(Cl)cc2)c2c(sc(C)c2C)-n2c(C)nnc21` [Compound 17], the EC50 (MV4;11 [1]) is reported as 617 nM, the “pEC50 (HL60)” value (HL60 [2]) is reported as “BLQ” and the “fold less permeable than 15 (PAMPA)” value (pH 7.4) is reported as 2.5 fold. For the same compound, the LPE [3] was -3.1, the “LPE lower than 15 (ΔLPE)” value ([3]; alkyl-linked 17 vs PEG counterpart 15) was 0.8 and the Papp at 15 h (in vitro; pH 7.4) was 0.002 ×10⁻⁶ cm/s.

With `Cc1ncsc1-c1ccc(CNC(=O)[C@@H]2C[C@@H](O)CN2C(=O)[C@@H](NC(=O)CCOCCOCCOCCNC(=O)Cc2ccccc2)C(C)(C)C)cc1` [Compound 6] the “ΔLPE (lower than 4)” value ([3]; comparator compound 4) was 0.4 and the Papp at 7 h (in vitro; pH 7.4) was 0.2 ± 0.03 ×10⁻⁶ cm/s.

In the case of `Cc1ncsc1-c1ccc(CNC(=O)[C@@H]2C[C@@H](O)CN2C(=O)[C@@H](NC(=O)COCCOCCOCCOCCOCCOCC(=O)N[C@H](C(=O)N2C[C@H](O)C[C@H]2C(=O)NCc2ccc(-c3scnc3C)cc2)C(C)(C)C)C(C)(C)C)cc1` [Compound 13], the “permeability relative to 12 (PAMPA)” value is given as “reduced by half”, the LPE ([3]; listed as CM11 (13)) is given as 0.6 and the “activity relative to 12 (cellular protein degradation assay)” value (VHL E3 ubiquitin ligase) is given as “two log units”. It also gave a Papp (in vitro; pH 7.4) of 0.005 ×10⁻⁶ cm/s.

With `CC(=O)N[C@H](C(=O)N1C[C@H](O)C[C@H]1C(=O)NCc1ccc(-c2scnc2C)cc1)C(C)(C)SCCOCCOCCNC(=O)C[C@@H]1N=C(c2ccc(Cl)cc2)c2c(sc(C)c2C)-n2c(C)nnc21` [Compound 16] the EC50 (MV4;11 [1]) was 692 nM, the “pEC50 (HL60)” value (HL60 [2]) was “BLQ” and the “permeability relative to 15 (PAMPA)” value was “reduced by half”. The “PAMPA permeability (Pe)” value (pH 7.4) was 0.003 ± 8.4x10-5, the LPE [3] was −2.6 and the Papp at 15 h (in vitro; pH 7.4) was 0.003 ×10⁻⁶ cm/s.

For `Cc1ncsc1-c1ccc(CNC(=O)[C@@H]2C[C@@H](O)CN2C(=O)[C@@H](NC(=O)[C@H](Cc2ccccc2)NC(=O)COCCOCCOCCNC(=O)C[C@@H]2N=C(c3ccc(Cl)cc3)c3c(sc(C)c3C)-n3c(C)nnc32)C(C)(C)C)cc1` [Compound 9], the EC50 (MV4;11 [1]) was 457 nM, the EC50 (HL60 [2]) was 4170 nM and the “fold decrease in permeability vs 8 (PAMPA)” value (pH 7.4) was 5 fold. For the same compound, the LPE [3] was -1.1, the “decrease in LPE vs 8” value ([3]; addition of a Phe residue to 8) was 1.2 unit and the Papp at 15 h (in vitro; pH 7.4) was 0.006 ×10⁻⁶ cm/s.

`Cc1ncsc1-c1ccc(CNC(=O)[C@@H]2C[C@@H](O)CN2C(=O)[C@@H](OC(=O)Cc2ccccc2)C(C)(C)C)cc1` [Compound 3] showed a Kd (VHL) of 800 nM.

For `CC(=O)N1c2ccc(-c3ccc(C(=O)NCCOCCOCC(=O)N[C@H](C(=O)N4C[C@H](O)C[C@H]4C(=O)NCc4ccc(-c5scnc5C)cc4)C(C)(C)C)cc3)cc2[C@H](Nc2ccc(Cl)cc2)C[C@@H]1C` [Compound 10], the “fold difference in permeability vs 11 (PAMPA)” value (pH 7.4) is given as 2 fold, the LPE [3] is given as -0.1 and the “pEC50 (MV4;11)” value (MV4;11 [4]) is given as 6.24. The “pEC50 (HL60)” value (HL60 [5]) was 6.17 and the Papp at 15 h (in vitro; pH 7.4) was 0.3 ± 0.1 ×10⁻⁶ cm/s.

In the case of `Cc1ncsc1-c1ccc(CNC(=O)[C@@H]2C[C@@H](O)CN2C(=O)[C@@H](NC(=O)COCCOCCOCCOCC(=O)N[C@H](C(=O)N2C[C@H](O)C[C@H]2C(=O)NCc2ccc(-c3scnc3C)cc2)C(C)(C)C)C(C)(C)C)cc1` [Compound 12], the LPE ([3]; listed as CM9 (12)) is reported as 0.8 and the Papp (in vitro; pH 7.4) is reported as 0.009 ×10⁻⁶ cm/s.

Compound `Cc1ncsc1-c1ccc(CNC(=O)[C@@H]2C[C@H](O)CN2C(=O)[C@@H](NC(=O)COCCOCCOCCOCCOCCOCC(=O)N[C@H](C(=O)N2C[C@@H](O)C[C@H]2C(=O)NCc2ccc(-c3scnc3C)cc2)C(C)(C)C)C(C)(C)C)cc1` [Compound 14] has an LPE ([3]; listed as CMP98 (14)) of 1.7 and a Papp at 15 h (in vitro; pH 7.4) of 0.002 ± 0.0002 ×10⁻⁶ cm/s.

In the case of `Cc1ncsc1-c1ccc(CNC(=O)[C@@H]2C[C@@H](O)CN2C(=O)[C@@H](OC(=O)CCOCCOCCOCCNC(=O)Cc2ccccc2)C(C)(C)C)cc1` [Compound 5], the “fold more permeable than 6 (PAMPA)” value (pH 7.4) is reported as 1.5 fold, the “ΔLPE (lower than 3)” value ([3]; comparator compound 3) is reported as 0.8 and the Papp at 7 h (in vitro; pH 7.4) is reported as 0.3 ± 0.1 ×10⁻⁶ cm/s.

In the case of `CC(=O)N[C@H](C(=O)N1C[C@H](O)C[C@H]1C(=O)NCc1ccc(-c2scnc2C)cc1)C(C)(C)SCCCCCCNC(=O)C[C@@H]1N=C(c2ccc(Cl)cc2)c2c(sc(C)c2C)-n2c(C)nnc21` [AT1], the “fold lower binding affinity for the VHL protein compared to 8” value (VHL protein) is given as 5 fold.

For `CC(=O)N1c2ccc(-c3ccc(C(=O)NCCOCCOCCOCCOCC(=O)N[C@H](C(=O)N4C[C@H](O)C[C@H]4C(=O)NCc4ccc(-c5scnc5C)cc4)C(C)(C)C)cc3)cc2[C@H](Nc2ccc(Cl)cc2)C[C@@H]1C` [Compound 11], the LPE [3] is listed as 0.2, the “pEC50 (MV4;11)” value (MV4;11 [4]) is listed as 7.08 and the “pEC50 (HL60)” value (HL60 [5]) is listed as 6.37. For the same compound, the Papp at 15 h (in vitro; pH 7.4) was 0.16 ± 0.14 ×10⁻⁶ cm/s.

For `Cc1ncsc1-c1ccc(CNC(=O)[C@@H]2C[C@@H](O)CN2C(=O)[C@@H](NC(=O)COCCOCCOCCNC(=O)C[C@@H]2N=C(c3ccc(Cl)cc3)c3c(sc(C)c3C)-n3c(C)nnc32)C(C)(C)C)cc1` [Compound 8], the “fold difference in permeability vs 16 (PAMPA)” value (pH 7.4) is given as 10 fold, the “fold less permeable than 7 (PAMPA)” value (pH 7.4) is given as 20 fold and the “activity relative to 7 (cellular antiproliferation)” value (MV4;11 [4]; SI Table 2, MV4;11 and HL60) is given as “one log unit”. For the same compound, the “pEC50 (MV4;11)” value (MV4;11 [4]) was 7.57, the “pEC50 (HL60)” value (HL60 [5]) was 6.8 and the Papp (in vitro; pH 7.4) was over 0.6 ×10⁻⁶ cm/s. The Papp at 15 h (in vitro; pH 7.4) was 0.03 ± 0.01 ×10⁻⁶ cm/s.

With `CC(=O)N[C@H](C(=O)N1C[C@H](O)C[C@H]1C(=O)NCc1ccc(-c2scnc2C)cc1)C(C)(C)SCCOCCNC(=O)C[C@@H]1N=C(c2ccc(Cl)cc2)c2c(sc(C)c2C)-n2c(C)nnc21` [Compound 15] the EC50 (MV4;11 [1]) was 7240 nM, the EC50 (HL60 [2]) was 12600 nM and the LPE [3] was −2.3. For the same compound, the Papp at 15 h (in vitro; pH 7.4) was 0.005 ± 0.003 ×10⁻⁶ cm/s.

Work on `Cc1sc2c(c1C)C(c1ccc(Cl)cc1)=N[C@@H](CC(=O)OC(C)(C)C)c1nnc(C)n1-2` [Compound 1, reference compound] yielded a Papp (in vitro; pH 7.4, PAMPA permeability (Pe)) of at least 5 ×10⁻⁶ cm/s.

`Cc1ncsc1-c1ccc(CNC(=O)[C@@H]2C[C@@H](O)CN2C(=O)[C@@H](NC(=O)Cc2ccccc2)C(C)(C)C)cc1` [Compound 4] gave an LPE [3] of 2.0, a Papp (in vitro; pH 7.4) of at least 5 ×10⁻⁶ cm/s and a Papp at 7 h (in vitro; pH 7.4) of 8.6 ×10⁻⁶ cm/s.

For `Cc1ncsc1-c1ccc(CNC(=O)[C@@H]2C[C@@H](O)CN2C(=O)[C@@H](NC(=O)COCCOCCNC(=O)C[C@@H]2N=C(c3ccc(Cl)cc3)c3c(sc(C)c3C)-n3c(C)nnc32)C(C)(C)C)cc1` [Compound 7], the “fold more permeable than 8 (PAMPA)” value (pH 7.4) was 20 fold, the “fold more permeable than 9 (PAMPA)” value (pH 7.4) was 100 fold and the “fold more permeable than 15 (PAMPA)” value (pH 7.4) was 120 fold. For the same compound, the “fold more permeable than 17 and 14 (PAMPA)” value (pH 7.4) was 300 fold, the LPE [3] was 0.4 and the “pEC50 (MV4;11)” value (MV4;11 [4]) was 6.75. The “pEC50 (HL60)” value (HL60 [5]) was 5.84, the Papp (in vitro; pH 7.4) was over 0.6 ×10⁻⁶ cm/s and the Papp at 15 h (in vitro; pH 7.4) was 0.6 ×10⁻⁶ cm/s.
